Reference: ChEMBL document CHEMBL1201862, “PubChem BioAssay data set” (2004)
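Test compounds were applied to cells in 96-well plates for 48 hours at 5 doses. GI50: concentration for 50% inhibition of growth.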 Activity calls are given as the source filed them. No stated cut-off is given here; in the data, active = GI50 up to about 1.1 µM and inactive = higher.

What was measured:
Experiment in all cases: NCI-60 cell line screen, 48 h
[1] = system: M14
[2] = system: KM12
[3] = system: NCI-H460
[4] = system: MDA-MB-435
[5] = system: IGROV-1
[6] = system: OVCAR-8
[7] = system: SNB-19
[8] = system: HOP-62
[9] = system: CCRF-CEM
[10] = system: HOP-92
[11] = system: LOX IMVI
[12] = system: HL-60
[13] = system: ACHN
[14] = system: UACC-62
[15] = system: TK-10
[16] = system: NCI-H522
[17] = system: SF-295
[18] = system: SK-MEL-5
[19] = system: A498

| Compound | GI50 [1] | GI50 [2] | GI50 [3] | GI50 [4] | GI50 [5] | GI50 [6] | GI50 [7] | GI50 [8] | GI50 [9] | GI50 [10] | GI50 [11] | GI50 [12] | GI50 [13] | GI50 [14] | GI50 [15] | GI50 [16] | GI50 [17] | GI50 [18] | GI50 [19] |
| --- | --- | --- | --- | --- | --- | --- | --- | --- | --- | --- | --- | --- | --- | --- | --- | --- | --- | --- | --- |
| C=CCN(CC=C)Cn1c(=S)sc2ccccc21 | > 100 µM (inactive) | > 100 µM (inactive) | 82.8 µM (inactive) | > 100 µM (inactive) | 36.6 µM (inactive) | > 100 µM (inactive) | > 100 µM (inactive) | > 100 µM (inactive) | 22.2 µM (inactive) | 36.4 µM (inactive) | 17.8 µM (inactive) | 16.5 µM (inactive) | > 100 µM (inactive) | 55.1 µM (inactive) | > 100 µM (inactive) | 18.7 µM (inactive) | > 100 µM (inactive) | 28.8 µM (inactive) |  |
| O=C1Cc2c([nH]c3ccc(C(=O)O)cc23)-c2ccccc2N1 | > 100 µM (inactive) | > 100 µM (inactive) | > 100 µM (inactive) | > 100 µM (inactive) | > 100 µM (inactive) | > 100 µM (inactive) | > 100 µM (inactive) | > 100 µM (inactive) | > 100 µM (inactive) | > 100 µM (inactive) | > 100 µM (inactive) | 37.5 µM (inactive) | > 100 µM (inactive) | > 100 µM (inactive) | > 100 µM (inactive) |  | > 100 µM (inactive) |  | > 100 µM (inactive) |
| COC1=CC23CCCN2CCc2cc4c(cc2C3C1O)OCO4 (centres undefined) | > 100 µM (inactive) | 47 µM (inactive) | 36 µM (inactive) | > 100 µM (inactive) | 28.8 µM (inactive) | > 100 µM (inactive) | 20.3 µM (inactive) |  | 41.2 µM (inactive) | > 100 µM (inactive) | 37.1 µM (inactive) | 25.8 µM (inactive) | 22.3 µM (inactive) | > 100 µM (inactive) | > 100 µM (inactive) | 29.2 µM (inactive) | 36.1 µM (inactive) | 20 µM (inactive) | 59.3 µM (inactive) |
| C[C@]12CCC(=O)C=C1CC[C@@H]1C2CC[C@]2(C)c3nn(-c4ccc(F)cc4)nc3CC12 (some centres undefined) | > 100 µM (inactive) | > 100 µM (inactive) | > 100 µM (inactive) | > 100 µM (inactive) | > 100 µM (inactive) | > 100 µM (inactive) | 43.6 µM (inactive) | 76.2 µM (inactive) | > 100 µM (inactive) | 61.1 µM (inactive) |  | > 100 µM (inactive) | > 100 µM (inactive) | > 100 µM (inactive) | > 100 µM (inactive) | > 100 µM (inactive) | 69.8 µM (inactive) | > 100 µM (inactive) | 49.8 µM (inactive) |
| Cc1c(C)c(C)c(-n2c(=O)n(C)c(=O)n2C(C)(C)C)c(C)c1C | > 100 µM (inactive) | > 100 µM (inactive) | > 100 µM (inactive) | > 100 µM (inactive) |  |  | > 100 µM (inactive) |  | 38 µM (inactive) | > 100 µM (inactive) | > 100 µM (inactive) | 40.3 µM (inactive) | > 100 µM (inactive) | > 100 µM (inactive) | > 100 µM (inactive) |  | > 100 µM (inactive) | > 100 µM (inactive) | > 100 µM (inactive) |
| C=C(C)CCN(C(=O)OC(C)(C)C)c1cc(C(C)C)co1 | > 100 µM (inactive) | 64.3 µM (inactive) |  | 96.2 µM (inactive) | > 100 µM (inactive) | 37.5 µM (inactive) | > 100 µM (inactive) | > 100 µM (inactive) | 25.6 µM (inactive) | 11.4 µM (inactive) | 28 µM (inactive) | 11.8 µM (inactive) | 73.6 µM (inactive) | 86.9 µM (inactive) | > 100 µM (inactive) |  | 51.4 µM (inactive) | 44.3 µM (inactive) | > 100 µM (inactive) |
| Cc1ccccc1NC(=O)C(=O)Cc1cnc2ccccc2n1 | > 100 µM (inactive) | > 100 µM (inactive) | > 100 µM (inactive) | > 100 µM (inactive) | > 100 µM (inactive) | > 100 µM (inactive) | > 100 µM (inactive) |  | 69.8 µM (inactive) | > 100 µM (inactive) | > 100 µM (inactive) | > 100 µM (inactive) | > 100 µM (inactive) | > 100 µM (inactive) | > 100 µM (inactive) | > 100 µM (inactive) | > 100 µM (inactive) | > 100 µM (inactive) | > 100 µM (inactive) |
| CCN(CC)CCCn1c(=O)c2ccccc2n2c3c(=O)n(C)c(=O)n(C)c3nc12 | 12.3 µM (inactive) | 4.63 µM (inactive) | 0.355 µM (active) | 14.2 µM (inactive) | 6.58 µM (inactive) | 5.08 µM (inactive) | 4.88 µM (inactive) | 2.77 µM (inactive) | 3.03 µM (inactive) | 3.9 µM (inactive) | 3.03 µM (inactive) | 1.58 µM (inactive) | 1.34 µM (inactive) | 4.3 µM (inactive) | 15.8 µM (inactive) | 5.74 µM (inactive) | 3.43 µM (inactive) | 2.22 µM (inactive) |  |
